Test results published in PubChem BioAssay AID1745844 (Carcinogenic Potency Database (CPDB), 2022).
The source made the active and inactive calls. The rule behind the calls is not given here.

Test system: rodent lifetime carcinogenesis bioassay, tumor incidence TD50
Assay: chronic cancer bioassays in animals – CPDB, compiled studies (AID 1745844)

`C=CF` was tested, and the TD50 (mouse, strain Charles River CD1, females, inhaled, site: Harderian gland, lesion: adenoma, dosed 67 weeks, study length 74 weeks) was 4010 mg/kg/day, the TD50 (mouse, strain Charles River CD1, females, inhaled, site: liver, lesion: hemangiosarcoma, dosed 67 weeks, study length 74 weeks) was 25.4 mg/kg/day and the TD50 (mouse, strain Charles River CD1, females, inhaled, site: lung, lesion: alveolar/bronchiolar adenoma, dosed 67 weeks, study length 74 weeks) was 54.6 mg/kg/day. It also gave a TD50 (mouse, strain Charles River CD1, females, inhaled, site: lung, lesion: several types, types named in the paper, dosed 67 weeks, study length 74 weeks) of 54.6 mg/kg/day, a TD50 (mouse, strain Charles River CD1, females, inhaled, site: mammary gland, lesion: adenocarcinoma, dosed 67 weeks, study length 74 weeks) of 13.6 mg/kg/day and a TD50 (mouse, strain Charles River CD1, females, inhaled, site: mammary gland, lesion: several types, types named in the paper, dosed 67 weeks, study length 74 weeks) of 13.6 mg/kg/day. It also gave a TD50 (mouse, strain Charles River CD1, males, inhaled, site: Harderian gland, lesion: adenoma, dosed 63 weeks, study length 78 weeks) of 1000 mg/kg/day, a TD50 (mouse, strain Charles River CD1, males, inhaled, site: liver, lesion: hemangiosarcoma, dosed 63 weeks, study length 78 weeks) of 19.4 mg/kg/day and a TD50 (mouse, strain Charles River CD1, males, inhaled, site: liver, lesion: hepatocellular adenoma, dosed 63 weeks, study length 78 weeks) of 34.6 mg/kg/day. The TD50 (mouse, strain Charles River CD1, males, inhaled, site: lung, lesion: alveolar/bronchiolar adenocarcinoma, dosed 63 weeks, study length 78 weeks) was 12300 mg/kg/day, the TD50 (mouse, strain Charles River CD1, males, inhaled, site: lung, lesion: alveolar/bronchiolar adenoma, dosed 63 weeks, study length 78 weeks) was 5.78 mg/kg/day and the TD50 (mouse, strain Charles River CD1, males, inhaled, site: lung, lesion: several types, types named in the paper, dosed 63 weeks, study length 78 weeks) was 5.78 mg/kg/day. The TD50 (rat, strain Charles River CD (Sprague-Dawley), females, inhaled, site: Zymbal's gland, lesion: squamous-cell carcinoma, sebaceous, dosed 52 weeks, study length 52 weeks) was 639 mg/kg/day, the TD50 (rat, strain Charles River CD (Sprague-Dawley), females, inhaled, site: Zymbal's gland, lesion: squamous-cell carcinoma, sebaceous, dosed 78 weeks, study length 78 weeks) was 684 mg/kg/day and the TD50 (rat, strain Charles River CD (Sprague-Dawley), females, inhaled, site: Zymbal's gland, lesion: squamous-cell carcinoma, sebaceous, dosed 93 weeks, study length 103 weeks) was 1470 mg/kg/day. For the same compound, the TD50 (rat, strain Charles River CD (Sprague-Dawley), females, inhaled, site: liver, lesion: hemangiosarcoma, dosed 93 weeks, study length 103 weeks) was 16.6 mg/kg/day, the TD50 (rat, strain Charles River CD (Sprague-Dawley), females, inhaled, site: liver, lesion: hepatocellular adenoma, dosed 93 weeks, study length 103 weeks) was 183 mg/kg/day and the TD50 (rat, strain Charles River CD (Sprague-Dawley), females, inhaled, site: liver, lesion: hepatocellular carcinoma, dosed 78 weeks, study length 78 weeks) was 1440 mg/kg/day. For the same compound, the TD50 (rat, strain Charles River CD (Sprague-Dawley), females, inhaled, site: liver, lesion: hepatocellular carcinoma, dosed 93 weeks, study length 103 weeks) was 7770 mg/kg/day, the TD50 (rat, strain Charles River CD (Sprague-Dawley), females, inhaled, site: liver, lesion: several types, types named in the paper, dosed 78 weeks, study length 78 weeks) was 7380 mg/kg/day and the TD50 (rat, strain Charles River CD (Sprague-Dawley), females, inhaled, site: liver, lesion: several types, types named in the paper, dosed 93 weeks, study length 103 weeks) was 183 mg/kg/day. It also gave a TD50 (rat, strain Charles River CD (Sprague-Dawley), males, inhaled, site: Zymbal's gland, lesion: squamous-cell carcinoma, sebaceous, dosed 52 weeks, study length 52 weeks) of 213 mg/kg/day, a TD50 (rat, strain Charles River CD (Sprague-Dawley), males, inhaled, site: Zymbal's gland, lesion: squamous-cell carcinoma, sebaceous, dosed 93 weeks, study length 103 weeks) of 1090 mg/kg/day and a TD50 (rat, strain Charles River CD (Sprague-Dawley), males, inhaled, site: liver, lesion: hemangiosarcoma, dosed 93 weeks, study length 103 weeks) of 25 mg/kg/day. For the same compound, the TD50 (rat, strain Charles River CD (Sprague-Dawley), males, inhaled, site: liver, lesion: hepatocellular adenoma, dosed 93 weeks, study length 103 weeks) was 200 mg/kg/day.
With `O=S(=O)(O)NC1CCCCC1` the TD50 (monkey, strain Cynomolgus [Macaca fascicularis], both sexes, in feed, site: liver, lesion: hepatocellular carcinoma, dosed 1238 weeks, study length 1238 weeks) was 1250 mg/kg/day, the TD50 (monkey, strain Cynomolgus [Macaca fascicularis], both sexes, in feed, site: prostate, lesion: adenocarcinoma, dosed 1238 weeks, study length 1238 weeks) was 35.6 mg/kg/day and the TD50 (monkey, strain Rhesus [Macaca mulatta], both sexes, in feed, site: any site (literature study), lesion: malignant tumor, dosed 1251 weeks, study length 1251 weeks) was 3160 mg/kg/day. The TD50 (monkey, strain Rhesus [Macaca mulatta], both sexes, in feed, site: colon, lesion: adenocarcinoma, dosed 1251 weeks, study length 1251 weeks) was 764 mg/kg/day, the TD50 (monkey, strain Rhesus [Macaca mulatta], both sexes, in feed, site: thyroid gland, lesion: papillary adenoma, dosed 1251 weeks, study length 1251 weeks) was 182 mg/kg/day and the TD50 (mouse, strain (C3H x RIII)F1 (MTV+), males, in drinking water, site: any site (literature study), lesion: several types, types named in the paper, dosed 104 weeks, study length 104 weeks) was 772 mg/kg/day. For the same compound, the TD50 (mouse, strain (C3H x RIII)F1 (MTV+), males, in drinking water, site: liver, lesion: several types, types named in the paper, dosed 104 weeks, study length 104 weeks) was 1420 mg/kg/day, the TD50 (mouse, strain (C3H x RIII)F1 (MTV+), males, in drinking water, site: lung, lesion: several types, types named in the paper, dosed 104 weeks, study length 104 weeks) was 4380 mg/kg/day and the carcinogen call (mouse, strain ASH-CS1, females, in feed, site: liver, lesion: one or several types, types not named, dosed 80 weeks, study length 82 weeks) was “negative (inactive)”. The TD50 (mouse, strain ASH-CS1, females, in feed, site: lung, lesion: adenoma, dosed 80 weeks, study length 82 weeks) was 228000 mg/kg/day (inactive), the TD50 (mouse, strain ASH-CS1, females, in feed, site: reticuloendothelium, lesion: lymphosarcoma, dosed 80 weeks, study length 82 weeks) was 16700 mg/kg/day (inactive) and the carcinogen call (mouse, strain ASH-CS1, males, in feed, site: liver, lesion: one or several types, types not named, dosed 80 weeks, study length 82 weeks) was “negative (inactive)”. The carcinogen call (mouse, strain ASH-CS1, males, in feed, site: lung, lesion: adenoma, dosed 80 weeks, study length 82 weeks) was “negative (inactive)”, the TD50 (mouse, strain RIII (MTV+), males, in drinking water, site: any site (literature study), lesion: several types, types named in the paper, dosed 104 weeks, study length 104 weeks) was 4670 mg/kg/day and the TD50 (mouse, strain RIII (MTV+), males, in drinking water, site: lung, lesion: several types, types named in the paper, dosed 104 weeks, study length 104 weeks) was 4670 mg/kg/day. For the same compound, the carcinogen call (mouse, strain Swiss albino, females, in feed, site: liver, lesion: hepatoma, dosed 76 weeks, study length 76 weeks) was “negative (inactive)”, the carcinogen call (mouse, strain Swiss, females, in feed, site: urinary bladder, lesion: anaplastic carcinoma, dosed 91 weeks, study length 91 weeks) was “negative (inactive)” and the carcinogen call (mouse, strain Swiss, males, in feed, site: urinary bladder, lesion: one or several types, types not named, dosed 91 weeks, study length 91 weeks) was “negative (inactive)”. The TD50 (mouse, strain XVII/G, females, in drinking water, site: any site (literature study), lesion: several types, types named in the paper, dosed 104 weeks, study length 104 weeks) was 587 mg/kg/day, the TD50 (mouse, strain XVII/G, females, in drinking water, site: liver, lesion: several types, types named in the paper, dosed 104 weeks, study length 104 weeks) was 16000 mg/kg/day and the TD50 (mouse, strain XVII/G, females, in drinking water, site: lung, lesion: several types, types named in the paper, dosed 104 weeks, study length 104 weeks) was 587 mg/kg/day. The TD50 (rat, strain Sprague-Dawley, both sexes, in feed, site: any site (literature study), lesion: malignant tumor, dosed 130 weeks, study length 130 weeks) was 30700 mg/kg/day (inactive), the carcinogen call (rat, strain Sprague-Dawley, both sexes, in feed, site: urinary bladder, lesion: papilloma, dosed 130 weeks, study length 130 weeks) was “negative (inactive)” and the carcinogen call (rat, strain Sprague-Dawley, both sexes, in feed, site: urinary bladder, lesion: transitional-cell carcinoma, dosed 130 weeks, study length 130 weeks) was “negative (inactive)”. The TD50 (rat, strain Wistar, both sexes, in feed, site: urinary bladder, lesion: one or several types, types not named, dosed 104 weeks, study length 104 weeks) was 83900 mg/kg/day.
`O=NN1CCC(=O)NC1=O` showed a TD50 (rat, strain MRC-Wistar, females, in drinking water, site: any site (literature study), lesion: several types, types named in the paper, dosed 41 weeks, study length 70 weeks) of 0.13 mg/kg/day, a TD50 (rat, strain MRC-Wistar, females, in drinking water, site: liver, lesion: hepatocellular carcinoma, dosed 41 weeks, study length 70 weeks) of 0.104 mg/kg/day and a TD50 (rat, strain MRC-Wistar, females, in drinking water, site: liver, lesion: several types, types named in the paper, dosed 41 weeks, study length 70 weeks) of 0.104 mg/kg/day. For the same compound, the TD50 (rat, strain MRC-Wistar, males, in drinking water, site: any site (literature study), lesion: several types, types named in the paper, dosed 41 weeks, study length 70 weeks) was 0.125 mg/kg/day, the TD50 (rat, strain MRC-Wistar, males, in drinking water, site: liver, lesion: hepatocellular carcinoma, dosed 41 weeks, study length 70 weeks) was 0.0932 mg/kg/day and the TD50 (rat, strain MRC-Wistar, males, in drinking water, site: liver, lesion: several types, types named in the paper, dosed 41 weeks, study length 70 weeks) was 0.0932 mg/kg/day.
Work on `C/C=C(/C)C(=O)O[C@H]1CCN2CC=C(COC(=O)[C@@](O)([C@H](C)OC)C(C)(C)O)[C@H]12` yielded a TD50 (rat, strain Fischer 344, females, in feed, site: any site (literature study), lesion: several types, types named in the paper, dosed 92 weeks, study length 104 weeks) of 0.102 mg/kg/day, a TD50 (rat, strain Fischer 344, females, in feed, site: liver + multiple organs, lesion: adenoma, NOS + angiosarcoma + hepatocellular carcinoma + granulocytic leukemia + leukemia + lymphocytic leukemia + lymphoma + undiffer, dosed 92 weeks, study length 104 weeks) of 0.141 mg/kg/day and a TD50 (rat, strain Fischer 344, females, in feed, site: liver, lesion: adenoma, NOS + hepatocellular carcinoma, dosed 92 weeks, study length 104 weeks) of 0.453 mg/kg/day. It also gave a TD50 (rat, strain Fischer 344, females, in feed, site: liver, lesion: angiosarcoma, dosed 92 weeks, study length 104 weeks) of 0.355 mg/kg/day, a TD50 (rat, strain Fischer 344, females, in feed, site: liver, lesion: hepatocellular adenoma + hepatocellular carcinoma + neoplastic nodule, dosed 92 weeks, study length 104 weeks) of 22.7 mg/kg/day and a TD50 (rat, strain Fischer 344, females, in feed, site: multiple organs, lesion: granulocytic leukemia + lymphocytic leukemia + undifferentiated leukemia, dosed 92 weeks, study length 104 weeks) of 0.387 mg/kg/day. It also gave a TD50 (rat, strain Fischer 344, females, in feed, site: multiple organs, lesion: leukemia + lymphoma, dosed 92 weeks, study length 104 weeks) of 0.325 mg/kg/day, a TD50 (rat, strain Fischer 344, males, i.p., site: any site (literature study), lesion: several types, types named in the paper, dosed 56 weeks, study length 76 weeks) of 0.152 mg/kg/day and a TD50 (rat, strain Fischer 344, males, i.p., site: liver, lesion: hepatocellular carcinoma, dosed 56 weeks, study length 76 weeks) of 0.397 mg/kg/day. For the same compound, the TD50 (rat, strain Fischer 344, males, i.p., site: liver, lesion: several types, types named in the paper, dosed 56 weeks, study length 76 weeks) was 0.341 mg/kg/day, the TD50 (rat, strain Fischer 344, males, i.p., site: lung, lesion: adenoma, dosed 56 weeks, study length 76 weeks) was 1.33 mg/kg/day and the TD50 (rat, strain Fischer 344, males, i.p., site: skin, lesion: squamous-cell carcinoma, dosed 56 weeks, study length 76 weeks) was 0.794 mg/kg/day. The TD50 (rat, strain Fischer 344, males, i.p., site: small intestine, lesion: adenocarcinoma, dosed 56 weeks, study length 76 weeks) was 2.73 mg/kg/day, the TD50 (rat, strain Fischer 344, males, in feed, site: all sites, lesion: leukemia + lymphoma, dosed 98 weeks, study length 104 weeks) was 0.514 mg/kg/day and the TD50 (rat, strain Fischer 344, males, in feed, site: any site (literature study), lesion: several types, types named in the paper, dosed 55 weeks, study length 59 weeks) was 0.217 mg/kg/day. It also gave a TD50 (rat, strain Fischer 344, males, in feed, site: any site (literature study), lesion: several types, types named in the paper, dosed 98 weeks, study length 104 weeks) of 0.152 mg/kg/day, a TD50 (rat, strain Fischer 344, males, in feed, site: liver, lesion: adenoma, NOS + angiosarcoma + hepatocellular carcinoma, dosed 98 weeks, study length 104 weeks) of 0.25 mg/kg/day and a TD50 (rat, strain Fischer 344, males, in feed, site: liver, lesion: adenoma, NOS + hepatocellular carcinoma, dosed 98 weeks, study length 104 weeks) of 0.908 mg/kg/day. It also gave a TD50 (rat, strain Fischer 344, males, in feed, site: liver, lesion: angiosarcoma, dosed 55 weeks, study length 59 weeks) of 0.688 mg/kg/day, a TD50 (rat, strain Fischer 344, males, in feed, site: liver, lesion: angiosarcoma, dosed 98 weeks, study length 104 weeks) of 0.355 mg/kg/day and a TD50 (rat, strain Fischer 344, males, in feed, site: liver, lesion: carcinoma, dosed 55 weeks, study length 59 weeks) of 0.954 mg/kg/day. It also gave a TD50 (rat, strain Fischer 344, males, in feed, site: liver, lesion: hepatocellular adenoma + hepatocellular carcinoma + neoplastic nodule, dosed 98 weeks, study length 104 weeks) of 7.43 mg/kg/day.
For `O=[N+]([O-])c1ccc(-c2cscn2)o1`, the TD50 (rat, strain Sprague-Dawley albino, females, in feed, site: any site (literature study), lesion: several types, types named in the paper, dosed 46 weeks, study length 68 weeks) was 7.68 mg/kg/day, the TD50 (rat, strain Sprague-Dawley albino, females, in feed, site: forestomach, lesion: squamous-cell carcinoma, dosed 46 weeks, study length 68 weeks) was 19.5 mg/kg/day and the TD50 (rat, strain Sprague-Dawley albino, females, in feed, site: mammary gland, lesion: fibroadenoma, dosed 46 weeks, study length 68 weeks) was 15.6 mg/kg/day.
